{"source": "patent US4946668A", "about": "“Tumor imaging with technetium labelled glucarate” (Centocor, Inc., priority 1988, dated 1990)", "test_system": "colorectal carcinoma (HT-29 cells)", "assay": "Detection of colorectal carcinoma (HT-29 xenograft): scintigraphic imaging and uptake of radioactivity", "type": "in vivo, female athymic nude mice", "method": "Colorectal carcinoma was produced in female athymic nude mice by injecting subcutaneously 1×10^7 HT-29 cells (M.D. Anderson Hospital and Tumor Institute Houston, Tex.) per mouse in the hind limb. After 4 weeks, tumor bearing mice (2 per group) were injected intravenously with either sodium per-technetate (TcO4^-) or Tc-99m-glucarate (approximately350 uCi/mouse). […] After imaging at the last time point, animals were killed, tumors and organs were weighed and quantitated for the distribution of radioactivity.", "key": {"[1]": {"settings": "22 hours, approximately 350 uCi/mouse i.v."}}}
{"smiles": "[Na+].[O]=[Tc](=[O])(=[O])[O-]", "note": "[TcO4^-, sodium pertechnetate]", "values": [{"measurement": "% ID/gm at tumor site", "setting": "[1]", "result": "0.29 ± 0.00", "unit": "% ID/gm"}, {"measurement": "tumor/blood", "setting": "[1]", "result": "2.08 ± 0.21"}, {"measurement": "tumor/muscle", "setting": "[1]", "result": "12.08 ± 3.41"}, {"measurement": "tumor visualization", "setting": "images at 3, 5 and 24 hours", "result": "no tumor visualization was detected"}, {"measurement": "uptake of radioactivity seen in scintigraphic images", "setting": "images at 3, 5 and 24 hours after injection", "result": "nonspecific uptake of radioactivity at the thyroid and stomach"}]}
